Reference: ChEMBL document CHEMBL1255216, “Exploration of the amine terminus in a novel series of 1,2,4-triazolo-3-yl-azabicyclo[3.1.0]hexanes as selective dopamine D3 receptor antagonists” (J Med Chem, 2010)

Legend:
[1] = target: D(3) dopamine receptor (Homo sapiens, UniProt P35462); assay: Antagonist activity at human dopamine D3 expressed in CHO cells assessed as inhibition of quinelorane-induced [35S]GTPgammaS binding; type: functional, cell-based
[2] = target: D(2) dopamine receptor (Homo sapiens, UniProt P14416); assay: Antagonist activity at human dopamine D2L receptor expressed in CHO cells assessed as inhibition of quinelorane-induced [35S]GTPgammaS binding; type: functional, cell-based
[3] = target: Voltage-gated inwardly rectifying potassium channel KCNH2 (Homo sapiens, UniProt Q12809)
[4] = target: T1, Cytochrome P450 1A2 (Homo sapiens, UniProt P05177)
T1 sequence (P05177 whole entry): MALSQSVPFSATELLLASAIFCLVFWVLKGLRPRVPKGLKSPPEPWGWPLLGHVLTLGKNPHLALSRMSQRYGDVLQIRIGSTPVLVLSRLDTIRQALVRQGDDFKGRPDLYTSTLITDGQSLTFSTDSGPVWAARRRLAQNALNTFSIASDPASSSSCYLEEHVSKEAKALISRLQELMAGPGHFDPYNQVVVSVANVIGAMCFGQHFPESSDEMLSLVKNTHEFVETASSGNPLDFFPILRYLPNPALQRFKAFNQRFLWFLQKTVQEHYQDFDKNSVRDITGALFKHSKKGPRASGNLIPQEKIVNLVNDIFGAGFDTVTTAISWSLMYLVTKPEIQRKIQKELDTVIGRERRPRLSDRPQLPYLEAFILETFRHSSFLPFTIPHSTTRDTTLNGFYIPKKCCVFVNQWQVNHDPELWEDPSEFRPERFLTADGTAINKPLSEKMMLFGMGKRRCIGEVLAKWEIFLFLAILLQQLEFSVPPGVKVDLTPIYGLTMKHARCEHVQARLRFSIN
Description: Inhibition of human CYP1A2

[5] = system: Liver microsomes; details: rat, 0.5 h, 0.5 µM
[6] = target: Cytochrome P450 2C9 (Homo sapiens, UniProt P11712)
Description: Inhibition of human CYP2C9

[7] = target: Cytochrome P450 3A4 (Homo sapiens, UniProt P08684)
Description: Inhibition of human CYP3A4

[8] = system: Liver microsomes; details: human, 0.5 h, 0.5 µM
[9] = target: Cytochrome P450 2D6 (Homo sapiens, UniProt P10635)
Description: Inhibition of human CYP2D6

[10] = target: Cytochrome P450 2C19 (Homo sapiens, UniProt P33261)
Sequence of Cytochrome P450 2C19 (P33261 whole entry): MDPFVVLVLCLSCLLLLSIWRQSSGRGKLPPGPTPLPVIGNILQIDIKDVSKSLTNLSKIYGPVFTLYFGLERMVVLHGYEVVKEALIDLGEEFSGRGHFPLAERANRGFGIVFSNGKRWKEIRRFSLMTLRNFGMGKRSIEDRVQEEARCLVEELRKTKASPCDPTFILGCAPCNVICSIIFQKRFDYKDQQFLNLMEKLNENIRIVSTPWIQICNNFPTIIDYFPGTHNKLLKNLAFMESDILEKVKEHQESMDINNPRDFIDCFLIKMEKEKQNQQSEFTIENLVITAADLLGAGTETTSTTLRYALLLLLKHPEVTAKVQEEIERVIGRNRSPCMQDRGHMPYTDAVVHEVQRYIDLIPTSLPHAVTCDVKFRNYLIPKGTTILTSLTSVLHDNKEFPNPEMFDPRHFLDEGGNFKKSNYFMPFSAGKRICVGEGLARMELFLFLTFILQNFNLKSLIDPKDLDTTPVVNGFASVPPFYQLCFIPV
Description: Inhibition of human CYP2C19

Sequence of Voltage-gated inwardly rectifying potassium channel KCNH2 (Q12809 whole entry): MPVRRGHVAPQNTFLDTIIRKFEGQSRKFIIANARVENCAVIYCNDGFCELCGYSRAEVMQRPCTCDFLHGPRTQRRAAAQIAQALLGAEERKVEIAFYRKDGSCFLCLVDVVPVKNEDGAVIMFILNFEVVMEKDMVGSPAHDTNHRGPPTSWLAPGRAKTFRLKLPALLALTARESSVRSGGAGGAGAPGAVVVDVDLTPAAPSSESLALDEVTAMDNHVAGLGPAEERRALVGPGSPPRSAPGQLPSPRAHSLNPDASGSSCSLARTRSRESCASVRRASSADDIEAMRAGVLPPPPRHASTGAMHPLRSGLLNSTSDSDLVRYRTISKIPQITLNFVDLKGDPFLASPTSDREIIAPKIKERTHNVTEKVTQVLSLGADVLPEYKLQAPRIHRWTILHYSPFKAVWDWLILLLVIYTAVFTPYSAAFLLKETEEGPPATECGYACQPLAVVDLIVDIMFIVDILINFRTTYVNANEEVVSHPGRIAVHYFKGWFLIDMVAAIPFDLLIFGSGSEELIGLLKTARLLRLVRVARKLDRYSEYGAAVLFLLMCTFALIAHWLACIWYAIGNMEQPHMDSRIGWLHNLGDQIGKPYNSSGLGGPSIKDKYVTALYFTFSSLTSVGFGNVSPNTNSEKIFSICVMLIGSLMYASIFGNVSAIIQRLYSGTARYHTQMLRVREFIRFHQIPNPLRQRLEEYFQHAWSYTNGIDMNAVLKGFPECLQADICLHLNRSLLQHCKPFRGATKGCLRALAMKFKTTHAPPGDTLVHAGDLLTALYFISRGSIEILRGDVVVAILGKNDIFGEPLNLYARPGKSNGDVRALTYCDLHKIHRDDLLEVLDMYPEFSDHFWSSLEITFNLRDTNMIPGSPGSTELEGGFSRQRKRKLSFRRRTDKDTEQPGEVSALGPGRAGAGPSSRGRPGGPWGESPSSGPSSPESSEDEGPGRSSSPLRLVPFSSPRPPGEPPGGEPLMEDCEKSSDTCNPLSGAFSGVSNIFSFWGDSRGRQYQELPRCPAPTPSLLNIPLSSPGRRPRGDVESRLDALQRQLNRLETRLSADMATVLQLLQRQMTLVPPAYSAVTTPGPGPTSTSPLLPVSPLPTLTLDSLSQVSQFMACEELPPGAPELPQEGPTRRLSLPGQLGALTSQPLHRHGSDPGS
Sequence of D(3) dopamine receptor (P35462 whole entry): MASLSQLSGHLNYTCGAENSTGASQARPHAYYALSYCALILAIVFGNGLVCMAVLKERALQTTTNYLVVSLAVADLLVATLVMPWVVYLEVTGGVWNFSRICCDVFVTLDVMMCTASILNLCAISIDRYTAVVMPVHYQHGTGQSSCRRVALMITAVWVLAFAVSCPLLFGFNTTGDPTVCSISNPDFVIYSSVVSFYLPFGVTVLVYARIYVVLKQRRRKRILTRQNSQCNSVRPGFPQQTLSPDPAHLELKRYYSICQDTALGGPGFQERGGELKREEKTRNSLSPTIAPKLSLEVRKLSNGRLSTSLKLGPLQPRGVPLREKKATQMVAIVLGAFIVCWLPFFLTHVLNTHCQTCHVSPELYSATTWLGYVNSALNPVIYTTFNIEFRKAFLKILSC
Sequence of Cytochrome P450 3A4 (P08684 whole entry): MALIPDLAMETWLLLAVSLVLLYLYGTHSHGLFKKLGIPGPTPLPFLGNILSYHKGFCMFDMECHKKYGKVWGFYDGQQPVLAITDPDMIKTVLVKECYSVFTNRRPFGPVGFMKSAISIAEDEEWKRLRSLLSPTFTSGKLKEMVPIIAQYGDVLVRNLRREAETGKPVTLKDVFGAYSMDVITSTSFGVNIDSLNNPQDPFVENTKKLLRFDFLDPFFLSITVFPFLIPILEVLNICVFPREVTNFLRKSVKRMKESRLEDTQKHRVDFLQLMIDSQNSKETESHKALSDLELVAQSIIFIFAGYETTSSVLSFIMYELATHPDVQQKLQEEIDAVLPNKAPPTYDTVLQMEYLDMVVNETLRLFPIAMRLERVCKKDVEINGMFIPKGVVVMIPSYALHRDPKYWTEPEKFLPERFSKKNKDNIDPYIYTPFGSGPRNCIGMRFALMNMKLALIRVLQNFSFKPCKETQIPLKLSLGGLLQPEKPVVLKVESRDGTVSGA
Sequence of D(2) dopamine receptor (P14416 whole entry): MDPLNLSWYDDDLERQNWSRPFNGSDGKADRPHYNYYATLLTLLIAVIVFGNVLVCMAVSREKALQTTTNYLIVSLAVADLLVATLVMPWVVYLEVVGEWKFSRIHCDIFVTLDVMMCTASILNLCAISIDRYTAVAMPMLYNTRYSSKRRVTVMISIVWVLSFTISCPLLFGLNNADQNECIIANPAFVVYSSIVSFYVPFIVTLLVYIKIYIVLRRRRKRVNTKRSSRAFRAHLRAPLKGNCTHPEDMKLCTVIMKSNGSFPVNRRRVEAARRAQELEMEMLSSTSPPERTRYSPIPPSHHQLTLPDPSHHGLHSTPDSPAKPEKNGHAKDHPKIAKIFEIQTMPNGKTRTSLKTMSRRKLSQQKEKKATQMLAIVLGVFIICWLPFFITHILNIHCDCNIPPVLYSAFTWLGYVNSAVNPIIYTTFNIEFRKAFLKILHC
Sequence of Cytochrome P450 2D6 (P10635 whole entry): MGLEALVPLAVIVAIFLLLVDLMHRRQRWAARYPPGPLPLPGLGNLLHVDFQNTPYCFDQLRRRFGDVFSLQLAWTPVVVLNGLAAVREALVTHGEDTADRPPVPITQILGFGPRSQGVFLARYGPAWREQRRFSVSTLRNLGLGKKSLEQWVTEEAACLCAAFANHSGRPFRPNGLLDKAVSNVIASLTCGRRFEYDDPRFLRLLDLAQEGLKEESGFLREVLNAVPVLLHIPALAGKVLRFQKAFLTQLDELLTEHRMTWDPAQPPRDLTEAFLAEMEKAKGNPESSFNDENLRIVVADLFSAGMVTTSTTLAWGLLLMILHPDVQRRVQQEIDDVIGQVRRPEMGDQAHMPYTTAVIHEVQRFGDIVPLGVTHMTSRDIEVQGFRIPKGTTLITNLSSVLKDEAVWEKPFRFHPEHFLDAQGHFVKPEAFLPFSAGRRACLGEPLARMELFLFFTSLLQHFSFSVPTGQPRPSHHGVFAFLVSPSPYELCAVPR
Sequence of Cytochrome P450 2C9 (P11712 whole entry): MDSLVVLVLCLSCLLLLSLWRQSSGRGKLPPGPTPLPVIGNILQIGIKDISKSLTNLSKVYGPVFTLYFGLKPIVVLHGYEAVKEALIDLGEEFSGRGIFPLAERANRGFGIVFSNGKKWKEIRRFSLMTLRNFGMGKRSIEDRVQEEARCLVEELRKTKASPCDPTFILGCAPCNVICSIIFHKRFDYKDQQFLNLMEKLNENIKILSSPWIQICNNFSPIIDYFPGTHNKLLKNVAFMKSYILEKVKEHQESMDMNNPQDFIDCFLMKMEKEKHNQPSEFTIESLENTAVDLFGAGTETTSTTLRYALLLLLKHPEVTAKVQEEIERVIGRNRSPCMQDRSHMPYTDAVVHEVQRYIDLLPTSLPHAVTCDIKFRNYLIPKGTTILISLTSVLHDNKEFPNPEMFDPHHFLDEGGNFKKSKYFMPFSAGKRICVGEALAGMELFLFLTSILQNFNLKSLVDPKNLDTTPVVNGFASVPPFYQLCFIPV

Ki [1] [nM] | Ki [2] [nM] | Structure (SMILES) | also measured
50.1 | 398 | Cc1nc(C)c(-c2nnc(SCCCN3CCC4(CCc5ccc(F)cc54)C3)n2C)s1 (centres undefined) | IC50 [3]: 6310 nM
50.1 | 251 | Cc1ncoc1-c1nnc(SCCCNC2CC3CC3(c3ccccc3)C2)n1C (centres undefined) | 
126 | 398 | Cc1ncoc1-c1nnc(SCCCN2CCC3CC3(c3ccccc3)C2)n1C (centres undefined) | 
158 |  | Cc1ncoc1-c1nnc(SCCCN2CCC3(c4ccccc4)CC3C2)n1C (centres undefined) | 
7.94 | 501 | Cc1ncoc1-c1nnc(SCCCN2CCC3CC3(c3ccc(C(F)(F)F)cc3)C2)n1C (centres undefined) | IC50 [3]: 2000 nM
39.8 |  | Cc1ncoc1-c1nnc(SCCCN2CCC3(c4ccc(C(F)(F)F)cc4)CC3C2)n1C (centres undefined) | 
12.6 |  | Cc1ncoc1-c1nnc(SCCCN2CCC3CC3(c3cccc(C(F)(F)F)c3)C2)n1C (centres undefined) | 
6.31 | 2510 | Cc1ncoc1-c1nnc(SCCCN2CCC3(c4cccc(C(F)(F)F)c4)CC3C2)n1C (centres undefined) | 
3.98 | 100 | Cc1ncoc1-c1nnc(SCCCN2CCC3CC3(c3ccc(C(F)(F)F)cc3)CC2)n1C (centres undefined) | 
10 |  | Cc1nc(C)c(-c2nnc(SCCCN3CCC4CC4(c4ccc(C(F)(F)F)cc4)CC3)n2C)o1 (centres undefined) | 
3.98 | 200 | Cc1nc(C)c(-c2nnc(SCCCN3CCC4CC4(c4ccc(C(F)(F)F)cc4)CC3)n2C)s1 (centres undefined) | IC50 [3]: 631 nM
3.98 | 398 | Cn1c(SCCCN2CCC3CC3(c3ccc(C(F)(F)F)cc3)CC2)nnc1-c1ccnnc1 (centres undefined) | 
3.16 | 200 | Cc1ncoc1-c1nnc(SCCCN[C@@H]2CC[C@]3(c4ccc(C(F)(F)F)cc4F)CC23)n1C (some centres undefined) | IC50 [3]: 631 nM
31.6 | > 3160 | Cc1ncoc1-c1nnc(SCCCN[C@@H]2CC3C[C@]3(c3ccc(C(F)(F)F)cc3F)C2)n1C (some centres undefined) | 
7.94 |  | Cc1ncoc1-c1nnc(SCCCN2CCC3(CCCc4cc(Br)ccc43)C2)n1C (centres undefined) | 
15.8 | 316 | Cc1ncoc1-c1nnc(SCCCN2CCC3(CCCc4ccc(Br)cc43)C2)n1C (centres undefined) | 
100 | 1000 | COc1ccc2c(c1)CCCC21CCN(CCCSc2nnc(-c3ocnc3C)n2C)C1 (centres undefined) | 
100 | > 3160 | Cc1ncoc1-c1nnc(SCCCN2CCC3(CCOc4ccccc43)C2)n1C (centres undefined) | 
5.01 | 126 | Cc1ncoc1-c1nnc(SCCCN2CCC3(CCc4cc(Br)ccc43)C2)n1C (centres undefined) | 
7.94 | 251 | Cc1ncoc1-c1nnc(SCCCN2CCC3(CCc4c(Br)cccc43)C2)n1C (centres undefined) | 
2.51 | 39.8 | Cc1ncoc1-c1nnc(SCCCN2CCC3(CCc4ccc(Br)cc43)C2)n1C (centres undefined) | 
31.6 | 398 | Cc1nc(C)c(-c2nnc(SCCCN3CCC4(CCc5cc(Cl)ccc54)C3)n2C)s1 (centres undefined) | IC50 [3]: 2510 nM
158 | 100 | Cc1ncoc1-c1nnc(SCCCN2CCC3(CCc4cc(F)ccc43)C2)n1C (centres undefined) | 
 |  | CCOc1ccc2c(c1)Oc1cc(OCC)ccc1C21OC(=O)c2ccccc21 [DIETHOXYFLOURESCEIN] | IC50 [7]: 1000 nM

Structure (SMILES) | Ki [1] [nM] | Ki [2] [nM] | also measured
Cc1ncoc1-c1nnc(SCCCN2[C@@H]3CC[C@H]2C[C@@H](c2ccc(C(C)(C)C)cc2)C3)n1C | 0.631 | 398 | IC50 [4]: > 5000 nM; CL [5]: 7.9 mL/min/g; IC50 [6]: > 5000 nM; IC50 [7]: > 5000 nM; CL [8]: 0.9 mL/min/g; IC50 [9]: > 5000 nM; IC50 [10]: > 5000 nM
Cc1ncoc1-c1nnc(SCCCN2[C@@H]3CC[C@H]2C[C@@H](c2ccc(C(F)(F)F)cc2)C3)n1C | 10 | 398 | 
Cc1ncoc1-c1nnc(SCCCN2[C@@H]3CC[C@H]2C[C@@H](c2ccc(C(F)(F)F)cc2F)C3)n1C | 6.31 | > 3160 | 
COc1cccc2c1CCCC21CCN(CCCSc2nnc(-c3ocnc3C)n2C)C1 (centres undefined) | 79.4 | 398 | 
COc1ccc2c(c1)C1(CCC2)CCN(CCCSc2nnc(-c3ocnc3C)n2C)C1 (centres undefined) | 31.6 |  | 
Cc1ncoc1-c1nnc(SCCCNC2CC[C@]3(c4ccc(C(F)(F)F)cc4)CC23)n1C (single isomer, unassigned) | 251 | > 3160 | IC50 [3]: 2510 nM
Cc1ncoc1-c1nnc(SCCCN[C@@H]2CC[C@]3(c4ccc(C(F)(F)F)cc4)CC23)n1C (stereo in doubt; 22) | 126 | > 3160 | IC50 [3]: 251 nM
Cc1ncoc1-c1nnc(SCCCN[C@@H]2CC[C@]3(c4ccc(C(F)(F)F)cc4)CC23)n1C (stereo in doubt; 24) | 3.98 | 501 | IC50 [4]: > 4000 nM; CL [5]: < 0.5 mL/min/g; IC50 [6]: > 4000 nM; IC50 [7]: > 4000 nM; CL [8]: < 0.5 mL/min/g; IC50 [9]: > 4000 nM; IC50 [10]: > 4000 nM; IC50 [3]: 631 nM
